{
  "source": "patent US11771699B2",
  "about": "“Combined treatment with a TLR7 agonist and an HBV capsid assembly inhibitor” (Hoffmann-La Roche Inc., priority 2015, dated 2023)",
  "key": {"HBV": {"system": "HBV", "details": "HBV infected transgenic mouse or humanized mouse models; cited from earlier work"}, "HBV (AAV-HBV)": {"system": "HBV (AAV-HBV)", "assay_type": "in vivo, C57BL/6 mice", "details": "for reduction in HBV DNA: Compound 2 12 mg/kg QD; for effect on HBV DNA: Example 7, FIG. 4-6; for effect on HBV DNA / effect on HBsAg: single treatment, 6 weeks PO, Compound 5 12 mg/kg QD; for effect on HBsAg: Example 7, FIG. 5-6", "from_the_text": "4-week old male C57BL/6 mice, specific pathogen free, were purchased from Shanghai Laboratory Animal Center of Chinese Academy of Sciences (SLAC) and housed in an animal care facility in individually ventilated cages under controlled temperature and light conditions following the Institutional Animal Care guidelines. AAV/HBV virus was purchased from Beijing FivePlus Molecular Medicine Institute (Beijing, China). This recombinant virus carries 1.3 copies of the HBV genome, which was packaged in AAV serotype 8 (AAV8) capsids. C57BL/6 mice were injected with […], of recombinant virus, diluted in saline buffer, through tail vein injection. The mice were bled at days 7 and 14 post injection to monitor HBV surface antigen (HBsAg), HBV e antigen (HBeAg), HBs antibody (HBsAb) and HBV genomic DNA in serum, and then were randomly grouped according to these HBV biomarkers.\nMeasurement of HBV Biomarkers\nSerum HBsAg and HBeAg was measured using CLIA kits (Autobio Diagnostics Co., Ltd, Zhengzhou, China) according to the manufacturer's instructions. The lower limit of detection for HBsAg and HBeAg was 0.1 ng/mL and 0.25 NCU/mL (national clinical unit/mL) respectively. Serum dilution of 100-fold (for HBsAg) or 500-fold (for HBeAg) was used to obtain values within the linear range of the standard curve. Serum HBV DNA was extracted using a MagNA Pure 96 DNA and Viral NA Small Volume Kit (Roche) following the manufacturer's instructions. The DNA samples were analyzed by real-time quantitative PCR (qPCR) using a HBV-specific primer and probe set for specific amplification and detection of a 128 bp HBV genome region from the nucleotide 2969 to 3096. The sequences of the primers and probe are shown as follows: […]\nAnti-HBs in the serum was measured on day 24 after the treatment ended using Anti-HBs CLIA kits (Autobio Diagnostics Co., Ltd, Zhengzhou, China) following the manufacturer's instructions. The serum samples were 3-fold diluted and 50 μL of the diluted samples were used for the assay.\n10 mg/mL of Compound 1 and 1.2 mg/mL of Compound 2 was formulated as an inclusion complex with 2% Klucel LF, 0.1% Polysorbate 80, and 0.1% Parabens in water. All the mice were orally dosed for a total of 6 weeks followed by a 2-week off-treatment period. In one single-treatment control study, the five mice of the group Compound 1 were treated with Compound 1 at 100 mg/kg every other day (QOD). The vehicle group was treated with an equivalent volume of oral-QD vehicle placebo (2% Klucel LF, 0.1% Polysorbate 80, and 0.1% Parabens in water). In the combination therapy study, the five mice of the group Compound 2 were administered at 12 mg/kg orally once daily (QD). The group Combo received 100 mg/kg of Compound 1 QOD plus 12 mg/kg Compound 2 QD. The vehicle group was treated with an equivalent volume of oral-QD vehicle placebo (2% Klucel LF, 0.1% Polysorbate 80, and 0.1% Parabens in water).\nIn another independent study, more combinations of a TLR7 agonist plus a Capsid inhibitor and corresponding single compound treatments were tested (summarized in Table 2) using the same AAV-HBV mouse model and method of measurement of HBV biomarkers described in Example 5.\nIn this study, eight mice were recruited in each group, and animals received the first dose on day 28 post AAV-HBV infection. The tested combinations included Compound 1 plus Compound 4, Compound 3 plus Compound 4, and Compound 1 plus Compound 5."}, "human TLR7": {"target": "T1, human TLR7 (Homo sapiens, UniProt Q9NYK1)", "T1 sequence (Q9NYK1 27-1049)": "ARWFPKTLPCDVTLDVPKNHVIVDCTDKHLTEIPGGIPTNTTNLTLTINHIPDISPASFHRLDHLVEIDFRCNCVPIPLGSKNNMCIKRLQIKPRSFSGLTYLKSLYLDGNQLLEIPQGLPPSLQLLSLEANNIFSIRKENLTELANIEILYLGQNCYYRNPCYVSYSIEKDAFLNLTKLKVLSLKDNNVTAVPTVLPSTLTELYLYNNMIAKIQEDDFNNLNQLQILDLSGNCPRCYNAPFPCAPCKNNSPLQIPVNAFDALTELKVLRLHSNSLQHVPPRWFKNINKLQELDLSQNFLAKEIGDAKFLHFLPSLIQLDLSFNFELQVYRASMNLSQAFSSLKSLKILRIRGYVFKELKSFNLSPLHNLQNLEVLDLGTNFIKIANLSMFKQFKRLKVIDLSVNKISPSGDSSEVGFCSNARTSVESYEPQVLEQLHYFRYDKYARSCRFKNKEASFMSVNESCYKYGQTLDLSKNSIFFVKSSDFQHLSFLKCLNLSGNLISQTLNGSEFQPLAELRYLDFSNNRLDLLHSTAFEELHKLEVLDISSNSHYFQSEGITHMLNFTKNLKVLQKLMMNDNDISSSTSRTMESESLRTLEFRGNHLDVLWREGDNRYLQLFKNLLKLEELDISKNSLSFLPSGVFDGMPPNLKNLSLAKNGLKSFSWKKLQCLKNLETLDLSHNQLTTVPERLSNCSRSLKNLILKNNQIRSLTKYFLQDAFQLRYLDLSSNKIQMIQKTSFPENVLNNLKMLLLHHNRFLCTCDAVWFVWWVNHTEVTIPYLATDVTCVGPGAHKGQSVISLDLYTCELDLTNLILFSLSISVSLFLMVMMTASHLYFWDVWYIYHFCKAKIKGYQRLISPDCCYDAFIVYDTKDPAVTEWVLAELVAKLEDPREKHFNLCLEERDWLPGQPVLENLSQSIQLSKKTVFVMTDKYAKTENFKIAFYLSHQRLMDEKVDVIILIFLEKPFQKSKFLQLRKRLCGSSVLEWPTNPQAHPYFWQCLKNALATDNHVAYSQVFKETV", "assay": "HEK293-Blue-hTLR-7 cells assay (NF-κB/AP-1 SEAP reporter)", "assay_type": "cell-based", "details": "20 hours incubation, read-out: TLR7 agonism activity in HEK293-hTLR-7 assay", "from_the_text": "HEK293-Blue-hTLR-7 Cells Assay:\nA stable HEK293-Blue-hTLR-7 cell line was purchased from InvivoGen (Cat.#: hkb-htlr7, San Diego, Calif., USA). These cells were designed for studying the stimulation of human TLR7 by monitoring the activation of NF-κB. A SEAP (secreted embryonic alkaline phosphatase) reporter gene was placed under the control of the IFN-β[…] minimal promoter fused to five NF-κB and AP-1-binding sites. The SEAP was induced by activating NF-κB and AP-1 via stimulating HEK-Blue hTLR7 cells with TLR7 ligands. Therefore the reporter expression was regulated by the NF-κB promoter upon stimulation of human TLR7 for 20 hours. The cell culture supernatant SEAP reporter activity was determined using QUANTI-Blue™ kit (Cat.#: rep-qb1, Invivogen, San Diego, Ca, USA) at a wavelength of 640 nm, a detection medium that turns purple or blue in the presence of alkaline phosphatase.\nHEK293-Blue-hTLR7 cells were incubated at a density of 250,000˜450,000 cells/mL in a volume of 180 μL in a 96-well plate in Dulbecco's Modified Eagle's medium (DMEM) containing 4.5 g/L glucose, 50 U/mL penicillin, […], […], 2 mM L-glutamine, 10% (v/v) heat-inactivated fetal bovine serum for 24 h. […]"}, "[1]": {"details": "Example 6, FIG. 1, serum, after a 6-week treatment, oral, Compound 1 100 mg/kg QOD"}, "[2]": {"details": "Example 6, FIG. 1, serum, after a 6-week treatment, Compound 2 12 mg/kg QD oral"}, "[3]": {"details": "Compound 4 20 mg/kg QD, Compound 3 30 mg/kg QOD"}, "[4]": {"details": "Example 8, FIG. 8, serum, end of the 6-week treatment, Compound 8 300 mg/kg QOD PO"}},
  "note": "Where two headings read alike, the source gives them in different places.",
  "data": [
    {"smiles": "COC(=O)C1=C(C)NC(c2ncc(F)cc2F)=N[C@H]1c1ccc(F)cc1Cl", "note": "[Bay 41-4109]", "values": [
      {"measurement": "in vivo efficacy (HBV DNA)", "setting": "HBV", "result": "in vivo efficacy with HBV DNA reduction"}
    ]},
    {"smiles": "CC[C@H](OC(C)=O)[C@@H]1C[C@@H](O)[C@H](n2c(=O)sc3cnc(N)nc32)O1", "note": "[Compound 1, [(1S)-1-[(2S,4R,5R)-5-(5-amino-2-oxo-thiazolo[4,5-d]pyrimidin-3-yl)-4-hydroxy-tetrahydrofuran-2-yl]propyl] acetate]", "values": [
      {"measurement": "reduction in HBsAg", "setting": "HBV (AAV-HBV); [1]", "result": "more than 1 log"},
      {"measurement": "reduction in HBV DNA", "setting": "HBV (AAV-HBV); [1]", "result": "more than 2 log"}
    ]},
    {"smiles": "CCOC(=O)C1=C(CN2CCN3C(=O)N(CC(C)(C)C(=O)O)C[C@@H]3C2)NC(c2nccs2)=N[C@H]1c1cccc(F)c1Cl", "note": "[Compound 2, 3-[(8aS)-7-[[(4R)-4-(2-chloro-3-fluoro-phenyl)-5-ethoxycarbonyl-2-thiazol-2-yl-1,4-dihydropyrimidin-6-yl]methyl]-3-oxo-5,6,8,8a-tetrahydro-1H-imidazo[1,5-a]pyrazin-2-yl]-2,2-dimethyl-propanoic acid]", "values": [
      {"measurement": "reduction in HBV DNA", "setting": "HBV (AAV-HBV); [1]", "result": "more than 3 log"},
      {"measurement": "HBV DNA level", "setting": "HBV (AAV-HBV); [2]", "result": "below the LLQ"},
      {"measurement": "HBsAg level (effect in words)", "setting": "HBV (AAV-HBV); [2]", "result": "moderately reduced"}
    ]},
    {"smiles": "CC(=O)O[C@@H](C1CC1)[C@H]1O[C@@H](n2c(=O)sc3cnc(N)nc32)CS1", "note": "[Compound 3, [(S)-[(2S,5R)-5-(5-amino-2-oxo-thiazolo[4,5-d]pyrimidin-3-yl)-1,3-oxathiolan-2-yl]-cyclopropyl-methyl] acetate]", "values": [
      {"measurement": "effect on HBV DNA", "setting": "HBV (AAV-HBV); [3]", "result": "reduced"},
      {"measurement": "effect on HBsAg", "setting": "HBV (AAV-HBV); Compound 3 30 mg/kg QOD", "result": "reduced"}
    ]},
    {"smiles": "CCOC(=O)C1=C(CN2CCN3C(=O)N(CC(C)(C)C(=O)O)C[C@@H]3C2)NC(c2nccs2)=N[C@H]1c1cccc(F)c1C", "note": "[Compound 4, 3-[(8aS)-7-[[(4S)-5-ethoxycarbonyl-4-(3-fluoro-2-methyl-phenyl)-2-thiazol-2-yl-1,4-dihydropyrimidin-6-yl]methyl]-3-oxo-5,6,8,8a-tetrahydro-1H-imidazo[1,5-a]pyrazin-2-yl]-2,2-dimethyl-propanoic acid]", "values": [
      {"measurement": "effect on HBV DNA", "setting": "HBV (AAV-HBV); [3]", "result": "inhibited"},
      {"measurement": "HBsAg reduction", "setting": "HBV (AAV-HBV); Example 7, FIG. 4 and 5, serum, end of 6-week treatment, PO, Compound 1 100 mg/kg QOD, Compound 3 30 mg/kg QOD, Compound 4 20 mg/kg QD", "result": 2, "unit": "log"}
    ]},
    {"smiles": "COC(=O)C1=C(CN2[C@@H]3C[C@H](CC(=O)O)C[C@H]2C(F)(F)C3)NC(c2nccs2)=N[C@H]1c1cccc(F)c1Cl", "note": "[Compound 5, 2-[(1R,3S,5S)-8-[[(4R)-4-(2-chloro-3-fluoro-phenyl)-5-methoxycarbonyl-2-thiazol-2-yl-1,4-dihydropyrimidin-6-yl]methyl]-6,6-difluoro-8-azabicyclo[3.2.1]octan-3-yl]acetic acid]", "values": [
      {"measurement": "effect on HBV DNA", "setting": "HBV (AAV-HBV); [3]", "result": "reduced"},
      {"measurement": "effect on HBsAg", "setting": "HBV (AAV-HBV); Compound 3 30 mg/kg QOD", "result": "reduced"}
    ]},
    {"smiles": "CC(=O)O[C@@H]1C[C@@H](CO)O[C@H]1n1c(=O)sc2cnc(N)nc21", "note": "[Compound 8, 5-amino-3-(2′-O-acetyl-3′-deoxy-β-D-ribofuranosyl)-3H-thiazolo[4,5-d]pyrimidin-2-one]", "values": [
      {"measurement": "HBV DNA reduction", "setting": "HBV (AAV-HBV); [4]", "result": "about 2 log"},
      {"measurement": "HBsAg reduction", "setting": "HBV (AAV-HBV); [4]", "result": "~1.5", "unit": "log"}
    ]},
    {"smiles": "CC[C@H](O)[C@@H]1C[C@@H](O)[C@H](n2c(=O)sc3c(=O)[nH]c(N)nc32)O1", "note": "[compound 11]", "values": [
      {"measurement": "EC50", "setting": "human TLR7", "result": 72, "unit": "µM"}
    ]}
  ]
}
